ChEMBL document CHEMBL1201862, “PubChem BioAssay data set” (2004)
Active and inactive are the calls of the source. Cut-off read from the data, not from the text of the source, for most assays here: actives have a measured EC50 and inactives only a lower limit.

Legend:
[1] = molecular target: T1, Corticotropin-releasing factor receptor 2/Corticotropin-releasing factor-binding protein (Homo sapiens, UniProt P24387+Q13324); assay: activators of CRF receptor 2 with binding protein – uHTS hits, confirmation (AID 602473); format: functional; conditions: read-out: EC50_Mean
T1 sequence (Q13324 whole entry): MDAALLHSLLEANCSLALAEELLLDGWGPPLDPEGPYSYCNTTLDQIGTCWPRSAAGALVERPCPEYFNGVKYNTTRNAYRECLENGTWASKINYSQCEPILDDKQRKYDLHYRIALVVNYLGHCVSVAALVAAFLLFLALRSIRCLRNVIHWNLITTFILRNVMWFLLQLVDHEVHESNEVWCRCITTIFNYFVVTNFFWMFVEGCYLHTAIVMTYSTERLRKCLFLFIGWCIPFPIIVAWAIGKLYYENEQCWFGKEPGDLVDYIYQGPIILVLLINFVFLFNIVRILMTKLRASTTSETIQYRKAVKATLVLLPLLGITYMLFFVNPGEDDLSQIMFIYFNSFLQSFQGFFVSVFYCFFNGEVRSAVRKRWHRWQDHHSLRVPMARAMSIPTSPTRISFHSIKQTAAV
T1 sequence (P24387 whole entry): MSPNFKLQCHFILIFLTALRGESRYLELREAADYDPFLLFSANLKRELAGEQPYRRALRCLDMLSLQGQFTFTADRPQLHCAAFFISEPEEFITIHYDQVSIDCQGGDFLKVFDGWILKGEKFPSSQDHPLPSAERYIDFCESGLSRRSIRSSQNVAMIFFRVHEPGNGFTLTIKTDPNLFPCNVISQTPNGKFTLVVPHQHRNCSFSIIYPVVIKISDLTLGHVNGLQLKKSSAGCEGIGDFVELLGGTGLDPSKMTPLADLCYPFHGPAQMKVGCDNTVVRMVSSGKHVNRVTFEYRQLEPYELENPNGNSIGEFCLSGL

HEK293 = assay: EBV LMP1 TES2 canonical NF-kB signalling blockers – cell-based, HEK293, luciferase, cherry-pick, dose response (AID 588343); format: functional; conditions: Homo sapiens
[2] = molecular target: Latent membrane protein 1 (Human herpesvirus 4 (strain B95-8), UniProt P03230); assay: LMP1 TES1 pathway selectivity over dsRED control – imaging, HEK293T, dual-color eGFP/dsRED, cherry-picks, selectivity assay for LMP1 NF-kB inhibitor project, dose response (AID 588398); format: functional, cell-based
cells [3] = assay: cells
[4] = molecular target: Luciferin 4-monooxygenase (Photinus pyralis, UniProt P08659); assay: inhibition of purified Photinus pyralis luciferase – biochemical, luminescence, dose response (AID 1891)
[5] = Luminescence Cell-Based Dose Confirmation HTS to Identify Inhibitors of Platelet Dense Granule Release. [Related pubchem assays: 1663 (Primary HTS), 1678 (Summary of Project)]; format: functional
[6] = molecular target: T2, Oxysterols receptor LXR-beta (Homo sapiens, UniProt P55055); format: functional, cell-based;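 note: Cell-based luminescence dose-response assay of agonist activity at LXR, run as a confirmatory counterscreen to a daf-12 agonist screen; HEK293 cells with Gal4-LXR fusion and GAL4-driven luciferase reporter; agonist potency from rising luciferase signal of a Gal4-LXR reporter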
T2 sequence (P55055 whole entry): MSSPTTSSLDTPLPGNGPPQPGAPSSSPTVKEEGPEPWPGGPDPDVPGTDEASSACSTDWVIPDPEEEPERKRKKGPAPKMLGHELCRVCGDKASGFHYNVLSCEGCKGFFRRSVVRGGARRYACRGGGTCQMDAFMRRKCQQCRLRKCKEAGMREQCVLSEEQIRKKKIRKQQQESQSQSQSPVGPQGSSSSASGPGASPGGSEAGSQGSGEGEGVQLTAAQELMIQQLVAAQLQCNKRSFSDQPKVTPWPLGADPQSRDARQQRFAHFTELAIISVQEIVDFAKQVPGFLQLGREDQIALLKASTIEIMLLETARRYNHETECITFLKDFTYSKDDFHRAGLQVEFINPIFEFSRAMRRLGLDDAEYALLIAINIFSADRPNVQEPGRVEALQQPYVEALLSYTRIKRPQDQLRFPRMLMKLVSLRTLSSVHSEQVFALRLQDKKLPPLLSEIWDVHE

[7] = luciferase inhibitors in kinase-free ADP detection – biochemical, luminescence, cherry-pick, set 02, artefact control for Dyrk1A inhibitor project, dose response (AID 588348)
[8] = molecular target: Dual specificity tyrosine-phosphorylation-regulated kinase 1A (Rattus norvegicus, UniProt Q63470); format: biochemical, Homo sapiens
[9] = Luminescence-based dose response cell-based high throughput screening assay for cytotoxic compounds using the IEC-6 intestinal epithelial cell line. [Related pubchem assays: 1858 (Summary AID.), 1825 (Counterscreen.), 1907 (Confirmation screen.)]; format: functional
[10] = luciferase reporter signal suppression in cells – H4 neuroglioma cells, luminescence, dose response (AID 1990); format: functional, cell-based
BJ [11] = assay: BJ-TERT fibroblast viability loss – cell-based, RAS-independent, luminescence, dose response (AID 1933); format: functional; conditions: Homo sapiens
BJ [12] = assay: cells; format: functional, cell-based; conditions: Homo sapiens
cells [13] = format: functional, cell-based
[14] = alpha-synuclein stem-loop translation blockers – luminescence, H4 neuroglioblastoma cells, dose confirmation, confirmation (AID 2454); format: functional, cell-based;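 note: H4 neuroglioblastoma cells carrying an alpha-synuclein 5'UTR luciferase reporter; potency for inhibition of the luciferase signal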
BJ [15] = assay: BJ-TERT-LT-ST fibroblast viability loss – cell-based, RAS-independent, luminescence, dose response (AID 1935); format: functional; conditions: Homo sapiens;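 note: BJ fibroblasts immortalized with TERT plus LT and ST oncogenes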
BJ [16] = assay: growth inhibition of engineered Ras-driven BJ cells – cell-based, alamar blue fluorescence, cherrypicked samples, dose response (AID 2631); format: functional; conditions: Homo sapiens;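 note: confirmatory dose-response assay in RAS-dependent BJ fibroblasts engineered with TERT, LT and ST, with cytotoxicity read by fluorescence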
[17] = DRD fibroblast viability loss – cell-based, non-viral oncogenic, luminescence, dose response (AID 1934); format: functional; conditions: Homo sapiens
[18] = luciferase reporter signal reduction – luminescence, H4-C neuroglioblastoma cells, dose response (AID 2458); format: functional, cell-based;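 note: H4 neuroglioblastoma cells stably carrying a luciferase reporter gene fusion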
[19] = alpha-synuclein stem-loop luciferase translation blockers – H4 neuroglioma cells, luminescence, confirmation (AID 1988); format: functional, cell-based
[20] = Luminescence Cell-Based Dose Response HTS to Identify Inhibitors of 5'UTR Stem-Loop Driven Prion Protein mRNA Translation in H4 Neuroglioblastoma Cells. [Related pubchem assays: 1827 (Project Summary), 1813 (Primary HTS)]; format: functional
[21] = molecular target: Botulinum neurotoxin type F (Clostridium botulinum, UniProt P30996); assay: High-throughput multiplex microsphere dose response for inhibitors of toxin protease, specifically Botulinum neurotoxin light chain F protease, compounds from Cherry Pick 02.; format: functional; conditions: read-out: EC50_MICROM
[22] = molecular target: Botulinum neurotoxin type A (Clostridium botulinum (strain Hall / ATCC 3502 / NCTC 13319 / Type A), UniProt P0DPI1); assay: High-throughput multiplex microsphere dose response for inhibitors of toxin protease, specifically Botulinum neurotoxin light chain A protease, compounds from Cherry Pick 02.; format: functional; conditions: read-out: EC50_MICROM
[23] = molecular target: Peroxisome proliferator-activated receptor gamma/Nuclear receptor coactivator 2 (Homo sapiens, UniProt P37231); assay: (§1) TR-FRET dose response biochemical High Throughput Screening assay for agonists of the steroid receptor coactivator 2 (SRC-2) recruitment by the peroxisome proliferator-activated receptor gamma (PPAR gamma): non-selective agonists. [Related pubchem assays: 1297, 1032 ]; format: functional
Protein S100-A4 = Protein S100-A4 (Homo sapiens, UniProt P26447); assay: human S100A4 peptide interaction inhibition curves – biochemical, fluorescence polarization, cherry-picked hits, dose response (AID 687001); format: functional
[24] = molecular target: Peroxisome proliferator-activated receptor gamma/Nuclear receptor coactivator 3 (Homo sapiens, UniProt P37231); assay: as §1, with “3 (SRC-3)” for “2 (SRC-2)”, “1301 (Confirmation screen.), 1048 (Primary screen.)]” for “1297, 1032 ]”; format: functional
[25] = molecular target: Peroxisome proliferator-activated receptor gamma/Nuclear receptor coactivator 1 (Homo sapiens, UniProt P37231); assay: as §1, with “1 (SRC-1)” for “2 (SRC-2)”, “assays (depositor defined):AID1300, AID1808, AID504735, AID631]” for “assays: 1297, 1032 ]”; format: protein assay
[26] = molecular target: T3, Sphingosine 1-phosphate receptor 4 (Homo sapiens, UniProt O95977); assay: Late-stage fluorescence-based dose-response cell-based counterscreen assay to identify agonists of the Sphingosine 1-Phosphate Receptor 3 (S1P3): Sphingosine 1-Phosphate Receptor 4 (S1P4) agonist assay.; format: functional
T3 sequence (O95977 whole entry): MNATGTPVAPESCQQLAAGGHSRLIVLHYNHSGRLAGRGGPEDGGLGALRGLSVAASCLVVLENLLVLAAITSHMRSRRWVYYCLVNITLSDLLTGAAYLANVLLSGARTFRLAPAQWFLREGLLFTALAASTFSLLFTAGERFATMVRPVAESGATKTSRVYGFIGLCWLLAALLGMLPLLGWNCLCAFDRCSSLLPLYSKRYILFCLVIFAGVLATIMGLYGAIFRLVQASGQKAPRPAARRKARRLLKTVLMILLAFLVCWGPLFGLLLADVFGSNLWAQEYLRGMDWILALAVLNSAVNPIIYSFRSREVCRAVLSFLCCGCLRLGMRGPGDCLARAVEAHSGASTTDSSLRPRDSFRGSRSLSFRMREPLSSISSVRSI

[27] = molecular target: Sphingosine 1-phosphate receptor 2 (Homo sapiens, UniProt O95136); assay: Late-stage fluorescence-based dose-response cell-based counterscreen assay to identify agonists of the Sphingosine 1-Phosphate Receptor 3 (S1P3): Sphingosine 1-Phosphate Receptor 2 (S1P2) agonist assay.; format: functional
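Throughout, for IC50: cell viability measured after two days of compound exposure.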

Peroxisome proliferator-activated receptor gamma/Nuclear receptor coactivator 1, sequence (P37231 whole entry): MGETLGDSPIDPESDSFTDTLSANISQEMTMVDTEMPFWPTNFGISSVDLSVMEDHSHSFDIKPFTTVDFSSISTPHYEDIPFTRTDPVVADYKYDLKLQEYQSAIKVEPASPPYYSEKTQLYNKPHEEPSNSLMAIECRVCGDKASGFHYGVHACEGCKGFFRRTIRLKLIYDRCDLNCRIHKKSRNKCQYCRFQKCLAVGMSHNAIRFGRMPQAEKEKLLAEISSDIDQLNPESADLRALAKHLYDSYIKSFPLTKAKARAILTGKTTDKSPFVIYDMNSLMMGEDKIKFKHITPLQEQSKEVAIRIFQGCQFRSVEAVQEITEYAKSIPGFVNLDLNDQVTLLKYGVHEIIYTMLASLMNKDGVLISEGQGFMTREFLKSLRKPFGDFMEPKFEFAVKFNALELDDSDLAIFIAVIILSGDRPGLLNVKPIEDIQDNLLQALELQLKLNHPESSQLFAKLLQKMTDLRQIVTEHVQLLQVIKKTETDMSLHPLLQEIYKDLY
Peroxisome proliferator-activated receptor gamma/Nuclear receptor coactivator 1, sequence (Q15788 whole entry, further chain): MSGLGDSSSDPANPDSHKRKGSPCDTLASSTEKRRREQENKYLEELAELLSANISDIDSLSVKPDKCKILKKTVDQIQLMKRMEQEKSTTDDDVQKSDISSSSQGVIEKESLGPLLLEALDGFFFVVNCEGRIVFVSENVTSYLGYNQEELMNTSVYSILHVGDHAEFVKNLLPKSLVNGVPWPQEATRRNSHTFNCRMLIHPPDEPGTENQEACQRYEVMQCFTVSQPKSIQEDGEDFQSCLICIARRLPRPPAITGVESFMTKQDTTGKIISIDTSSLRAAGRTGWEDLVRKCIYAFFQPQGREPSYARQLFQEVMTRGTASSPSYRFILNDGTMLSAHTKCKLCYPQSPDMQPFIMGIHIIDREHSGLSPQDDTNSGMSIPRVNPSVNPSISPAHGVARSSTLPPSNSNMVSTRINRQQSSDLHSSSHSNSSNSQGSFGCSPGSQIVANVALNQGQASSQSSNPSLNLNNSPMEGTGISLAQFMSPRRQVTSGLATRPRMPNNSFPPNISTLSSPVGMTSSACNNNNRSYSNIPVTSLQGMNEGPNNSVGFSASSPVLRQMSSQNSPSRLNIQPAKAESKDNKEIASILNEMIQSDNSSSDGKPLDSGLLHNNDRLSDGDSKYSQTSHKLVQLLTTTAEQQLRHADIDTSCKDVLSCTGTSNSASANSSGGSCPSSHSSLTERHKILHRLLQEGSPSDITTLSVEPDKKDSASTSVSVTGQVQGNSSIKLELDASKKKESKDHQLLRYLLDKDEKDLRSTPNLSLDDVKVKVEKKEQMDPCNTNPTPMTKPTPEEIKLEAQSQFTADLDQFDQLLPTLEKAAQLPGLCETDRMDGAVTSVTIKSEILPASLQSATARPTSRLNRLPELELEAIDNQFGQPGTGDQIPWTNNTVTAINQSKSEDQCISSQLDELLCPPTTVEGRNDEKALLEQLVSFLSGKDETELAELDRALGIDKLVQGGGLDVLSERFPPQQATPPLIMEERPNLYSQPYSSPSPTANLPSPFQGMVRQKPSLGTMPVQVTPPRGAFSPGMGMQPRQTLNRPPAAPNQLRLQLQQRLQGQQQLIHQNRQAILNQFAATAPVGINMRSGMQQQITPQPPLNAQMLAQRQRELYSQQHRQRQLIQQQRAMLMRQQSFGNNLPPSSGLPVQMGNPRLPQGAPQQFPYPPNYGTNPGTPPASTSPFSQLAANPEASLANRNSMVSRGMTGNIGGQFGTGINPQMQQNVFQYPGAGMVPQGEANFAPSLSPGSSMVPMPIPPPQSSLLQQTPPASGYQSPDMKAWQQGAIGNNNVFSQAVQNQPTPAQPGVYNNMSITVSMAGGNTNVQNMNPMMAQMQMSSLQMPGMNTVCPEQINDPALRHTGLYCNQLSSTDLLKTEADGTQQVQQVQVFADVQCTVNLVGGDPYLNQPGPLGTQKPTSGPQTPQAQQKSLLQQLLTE
Peroxisome proliferator-activated receptor gamma/Nuclear receptor coactivator 3, sequence (P37231 whole entry): as the sequence (P37231 whole entry) above
Peroxisome proliferator-activated receptor gamma/Nuclear receptor coactivator 3, sequence (Q9Y6Q9 whole entry, further chain): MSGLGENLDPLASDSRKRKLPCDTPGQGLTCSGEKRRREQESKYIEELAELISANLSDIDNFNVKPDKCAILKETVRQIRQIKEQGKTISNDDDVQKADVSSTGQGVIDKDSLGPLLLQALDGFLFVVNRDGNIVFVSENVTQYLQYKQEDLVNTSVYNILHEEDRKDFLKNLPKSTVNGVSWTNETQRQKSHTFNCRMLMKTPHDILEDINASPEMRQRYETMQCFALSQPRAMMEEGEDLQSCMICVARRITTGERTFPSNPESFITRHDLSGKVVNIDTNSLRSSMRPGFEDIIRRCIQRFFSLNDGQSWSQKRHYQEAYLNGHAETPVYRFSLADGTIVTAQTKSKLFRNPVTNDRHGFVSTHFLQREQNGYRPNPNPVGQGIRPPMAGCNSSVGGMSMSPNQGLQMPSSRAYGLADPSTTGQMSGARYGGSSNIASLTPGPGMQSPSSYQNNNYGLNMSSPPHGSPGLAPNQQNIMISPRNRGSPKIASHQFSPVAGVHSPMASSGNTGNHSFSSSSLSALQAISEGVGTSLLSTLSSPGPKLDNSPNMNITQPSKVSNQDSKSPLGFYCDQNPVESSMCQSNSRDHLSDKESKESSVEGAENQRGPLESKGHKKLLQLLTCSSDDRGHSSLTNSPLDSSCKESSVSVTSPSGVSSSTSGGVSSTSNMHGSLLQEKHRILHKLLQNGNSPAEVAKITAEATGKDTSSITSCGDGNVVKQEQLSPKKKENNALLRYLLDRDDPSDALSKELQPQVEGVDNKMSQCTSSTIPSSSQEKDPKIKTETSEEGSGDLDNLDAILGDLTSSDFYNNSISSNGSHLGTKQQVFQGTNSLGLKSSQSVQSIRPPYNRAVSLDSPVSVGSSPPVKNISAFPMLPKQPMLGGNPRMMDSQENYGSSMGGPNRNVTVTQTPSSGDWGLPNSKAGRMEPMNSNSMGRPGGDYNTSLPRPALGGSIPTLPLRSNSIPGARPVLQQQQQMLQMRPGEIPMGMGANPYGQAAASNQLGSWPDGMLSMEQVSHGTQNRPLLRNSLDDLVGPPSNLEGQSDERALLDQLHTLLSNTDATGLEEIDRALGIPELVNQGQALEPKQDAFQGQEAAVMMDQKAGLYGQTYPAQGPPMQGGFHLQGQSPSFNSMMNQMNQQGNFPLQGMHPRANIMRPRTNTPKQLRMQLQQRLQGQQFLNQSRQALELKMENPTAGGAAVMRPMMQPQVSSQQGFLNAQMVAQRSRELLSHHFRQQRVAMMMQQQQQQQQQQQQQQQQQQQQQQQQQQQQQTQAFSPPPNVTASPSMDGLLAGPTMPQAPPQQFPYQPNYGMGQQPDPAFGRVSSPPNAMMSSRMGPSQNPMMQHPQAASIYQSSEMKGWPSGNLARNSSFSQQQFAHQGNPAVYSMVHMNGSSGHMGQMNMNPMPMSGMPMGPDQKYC
Protein S100-A4, sequence (P26447 whole entry): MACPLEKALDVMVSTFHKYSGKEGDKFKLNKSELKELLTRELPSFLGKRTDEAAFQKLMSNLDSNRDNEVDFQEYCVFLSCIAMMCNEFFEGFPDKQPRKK
Latent membrane protein 1, sequence (P03230 whole entry): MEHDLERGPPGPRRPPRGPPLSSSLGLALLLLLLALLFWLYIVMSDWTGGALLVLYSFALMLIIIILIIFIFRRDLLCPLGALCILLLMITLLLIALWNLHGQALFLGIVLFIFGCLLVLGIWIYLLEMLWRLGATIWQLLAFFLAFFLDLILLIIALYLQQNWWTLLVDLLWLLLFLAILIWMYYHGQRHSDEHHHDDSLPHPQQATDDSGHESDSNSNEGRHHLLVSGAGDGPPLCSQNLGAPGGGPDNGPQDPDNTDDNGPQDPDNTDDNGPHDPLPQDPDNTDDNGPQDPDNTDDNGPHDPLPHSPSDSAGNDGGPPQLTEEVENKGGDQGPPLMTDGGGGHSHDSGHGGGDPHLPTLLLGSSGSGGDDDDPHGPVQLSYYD
Botulinum neurotoxin type A, sequence (P0DPI1 2-448 limits assumed): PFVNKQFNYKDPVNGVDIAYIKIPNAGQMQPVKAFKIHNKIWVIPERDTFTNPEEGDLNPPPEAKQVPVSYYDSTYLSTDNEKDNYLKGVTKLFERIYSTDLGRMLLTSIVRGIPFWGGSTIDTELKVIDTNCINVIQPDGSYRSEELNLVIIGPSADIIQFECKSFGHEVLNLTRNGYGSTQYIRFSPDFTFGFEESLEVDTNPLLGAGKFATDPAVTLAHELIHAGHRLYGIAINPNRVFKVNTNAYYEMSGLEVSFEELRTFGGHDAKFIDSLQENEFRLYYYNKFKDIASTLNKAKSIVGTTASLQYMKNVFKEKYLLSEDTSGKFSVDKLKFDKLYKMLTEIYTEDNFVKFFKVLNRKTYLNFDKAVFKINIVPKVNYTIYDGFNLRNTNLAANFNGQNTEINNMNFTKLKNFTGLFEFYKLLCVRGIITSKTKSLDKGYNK

CC(C)(C)c1ccc(C(=O)N2CCC(=O)N(C(CO)Cc3ccccc3)CC2)cc1 (centres undefined)
EC50 [1]: > 53 µM (inactive)
AC50 (HEK293): 173 µM (active)
AC50 [2]: 347 µM (active)

Cc1ccccc1C(=O)O/N=C(\N)c1ccccc1
EC50 (cells [3]): > 67.5 µM (inactive)
EC50 [4]: 3.42 µM (active)
EC50 [5]: 2.72 µM (active)
EC50 [6]: > 67.5 µM (inactive)
AC50 [7]: 60.9 µM (active)
AC50 [8]: 62.5 µM (active)

C#CCOc1ccc(C2C3=C(O)OCC3=Nc3cc4c(cc32)OCO4)cc1OC (centres undefined)
IC50 [9]: 0.0471 µM (active)
EC50 [10]: < 0.1 µM (active)
EC50 (BJ [11]): 3.14 µM (inconclusive)
EC50 (BJ [12]): 2.72 µM (inconclusive)
EC50 (cells [13]): 0.371 µM (active)
EC50 [14]: 0.231 µM (active)
EC50 (BJ [15]): 0.942 µM (active)
EC50 (BJ [16]): < 0.104 µM (active)
EC50 [17]: 0.9 µM (inconclusive)
EC50 [18]: 0.234 µM (active)
EC50 [19]: < 0.1 µM (active)
EC50 [20]: < 0.1 µM (active)

Cc1cc2ccccc2n1CCNC(=O)c1ccc(S(=O)(=O)N2CCCCC2)cc1
EC50 [21]: > 20 µM (inactive)
EC50 [22]: 1 µM (active)
EC50 [23]: 6.53 µM (active)
AC50 (Protein S100-A4): 6.69 µM (active)
EC50 [24]: 13.6 µM (not active)
EC50 [25]: 5.91 µM (active)

COc1ccc(-c2cc(C(=O)N(C3CCCCC3)C3CCCCC3)no2)cc1OC
EC50 [26]: > 50 µM (inactive)
EC50 [27]: > 50 µM (inactive)
